According to patent US20250332178A1, “METHODS OF TREATING MYCOBACTERIAL INFECTIONS USING TETRACYCLINE COMPOUNDS” (priority 2018, published 2025):
Values after ≈ are worked out from the molar mass of the structure shown.

Assays:
[1] = test system: rapid-growing mycobacteria (RGM) isolates; assay: MIC (CLSI broth dilution), all RGM isolates; format: cell-based, nontuberculous mycobacteria
[2] = test system: M. chelonae; assay: MIC (CLSI broth dilution), RGM isolates; format: cell-based; details: Mycobacteroides chelonae
[3] = test system: M. mucogenium group; assay: MIC (CLSI broth dilution), RGM isolates; format: cell-based
[4] = test system: M. abscessus complex; assay: MIC (CLSI broth dilution), RGM isolates; format: cell-based; details: Mycobacteroides abscessus
[5] = test system: M. fortuitum group; assay: MIC (CLSI broth dilution), RGM isolates; format: cell-based; details: Mycolicibacterium fortuitum
[6] = test system: Mycobacterium abscessus; assay: MIC by broth microdilution in CAMHB, clinical isolates; format: cell-based; details: Mycobacteroides abscessus
Experimental: (§1) A total of 24 clinical isolates of Mycobacterium abscessus, 22 clinical isolates of Mycobacterium chelonae and 20 clinical isolates of Mycobacterium fortuitum were tested in the study. The study also used the antibiotics tigecycline, doxycycline and amikacin for comparison purposes. […] Amikacin was dissolved in DMSO prior to freezing at −20° C. For susceptibility testing, stock solutions of antibiotic compounds were serially diluted in 50 μL of cation adjusted Mueller-Hinton broth (CAMHB) in polystryrene 96-well round-bottom microtiter plates. To each well, 50 μL of the appropriate mycobacterial cell suspension was added to yield a final concentration of about 1×10^5 CFU/mL. The inoculum used for each isolate was measured by titration in saline with Tween 80 and plating on MH agar. The Mycobacterium abscessus and Mycobacterium fortuitum titer plates were incubated at 37° C. in ambient air for 3-4 days and 5-7 days, respectively. The Mycobacterium chelonae titer plates were incubated at 30° C. in ambient air for 3-5 days. Each isolate was tested at least in duplicate. The MIC was defined as the lowest concentration of antimicrobial agent yielding no visible turbidity.

[7] = test system: Mycobacterium chelonae; assay: as above; format: cell-based
Experimental: as §1

[8] = test system: Mycobacterium fortuitum; assay: as above; format: cell-based; details: Mycolicibacterium fortuitum
Experimental: as §1

[9] = test system: M. smegmatis group; assay: MIC (CLSI broth dilution), RGM isolates; format: cell-based; details: Mycolicibacterium smegmatis
[10] = test system: M. immunogenum group; assay: MIC (CLSI broth dilution), RGM isolates; format: cell-based; details: M. immunogenum

CN(C)c1cc(NC(=O)CNC(C)(C)C)c(O)c2c1C[C@H]1C[C@H]3[C@H](N(C)C)C(O)=C(C(N)=O)C(=O)[C@@]3(O)C(O)=C1C2=O [Tigecycline, tigecycline]
MIC50 [1]: 0.125 µg/mL (≈ 0.213 µM) | MIC90 [1]: 0.25 µg/mL (≈ 0.427 µM) | MIC ([2]; isolate 18, M. chelonae): 0.12 µg/mL (≈ 0.205 µM) | MIC ([2]; isolate 19, M. chelonae): 0.25 µg/mL (≈ 0.427 µM) | MIC ([2]; isolate 20, M. chelonae): 0.12 µg/mL (≈ 0.205 µM) | MIC ([2]; isolate 21, M. chelonae): 0.5 µg/mL (≈ 0.854 µM) | MIC ([2]; isolate 22, M. chelonae): 0.25 µg/mL (≈ 0.427 µM) | MIC ([3]; isolate 39, M. mucogenicum group, M. mucogenicum): 0.12 µg/mL (≈ 0.205 µM) | MIC ([3]; isolate 40, M. mucogenicum group, M. mucogenicum): 0.06 µg/mL (≈ 0.102 µM) | MIC ([3]; isolate 41, M. mucogenicum group, M. mucogenicum): 0.06 µg/mL (≈ 0.102 µM) | MIC ([3]; isolate 42, M. mucogenicum group, M. mucogenicum): 0.12 µg/mL (≈ 0.205 µM) | MIC ([3]; isolate 43, M. mucogenicum group, M. phocaicum): 0.12 µg/mL (≈ 0.205 µM) | MIC ([3]; isolate 44, M. mucogenicum group, M. phocaicum): 0.06 µg/mL (≈ 0.102 µM) | MIC ([3]; isolate 45, M. mucogenicum group, M. phocaicum): 0.25 µg/mL (≈ 0.427 µM) | MIC ([3]; isolate 46, M. mucogenicum group, M. phocaicum): 0.06 µg/mL (≈ 0.102 µM) | MIC ([3]; isolate 47, M. mucogenicum group, M. phocaicum): 0.25 µg/mL (≈ 0.427 µM) | MIC ([3]; isolate 48, M. mucogenicum group, M. phocaicum): 0.03 µg/mL (≈ 0.0512 µM) | MIC ([4]; isolate 1, M. abscessus complex, erm gene type MAB30): 0.12 µg/mL (≈ 0.205 µM) | MIC ([4]; isolate 2, M. abscessus complex, erm gene type MAB30): 0.12 µg/mL (≈ 0.205 µM) | MIC ([4]; isolate 3, M. abscessus complex, erm gene type MAB30): 0.25 µg/mL (≈ 0.427 µM) | MIC ([4]; isolate 4, M. abscessus complex, erm gene type massiliense): 0.25 µg/mL (≈ 0.427 µM) | MIC ([4]; isolate 5, M. abscessus complex, erm gene type massiliense/subsp. abs hybrid): 0.25 µg/mL (≈ 0.427 µM) | MIC ([4]; isolate 6, M. abscessus complex, erm gene type Type 1 abscessus): 0.12 µg/mL (≈ 0.205 µM) | MIC ([4]; isolate 7, M. abscessus complex, erm gene type Type 1 abscessus): 0.25 µg/mL (≈ 0.427 µM) | MIC ([4]; isolate 8, M. abscessus complex, erm gene type Type 1 abscessus): 0.12 µg/mL (≈ 0.205 µM) | MIC ([4]; isolate 9, M. abscessus complex, erm gene type Type 1 abscessus): 0.25 µg/mL (≈ 0.427 µM) | MIC ([4]; isolate 10, M. abscessus complex, erm gene type Type 1 abscessus): 0.12 µg/mL (≈ 0.205 µM) | MIC ([4]; isolate 11, M. abscessus complex, erm gene type Type 6 abscessus): 0.06 µg/mL (≈ 0.102 µM) | MIC ([4]; isolate 12, M. abscessus complex, erm gene type Type 6 abscessus): 0.12 µg/mL (≈ 0.205 µM) | MIC ([4]; isolate 13, M. abscessus complex, erm gene type Type 6 abscessus): 0.25 µg/mL (≈ 0.427 µM) | MIC ([4]; isolate 14, M. abscessus complex, erm gene type Type 6 abscessus): 0.12 µg/mL (≈ 0.205 µM) | MIC ([4]; isolate 15, M. abscessus complex, erm gene type Type 7 abscessus): 0.06 µg/mL (≈ 0.102 µM) | MIC ([4]; isolate 16, M. abscessus complex, erm gene type Type 7 abscessus): 0.12 µg/mL (≈ 0.205 µM) | MIC ([4]; isolate 17, M. abscessus complex, erm gene type Type 8 abscessus): 0.12 µg/mL (≈ 0.205 µM) | MIC ([5]; isolate 23, M. fortuitum group, M. fortuitum): 0.03 µg/mL (≈ 0.0512 µM) | MIC ([5]; isolate 24, M. fortuitum group, M. fortuitum): 0.12 µg/mL (≈ 0.205 µM) | MIC ([5]; isolate 25, M. fortuitum group, M. fortuitum): ≤ 0.015 µg/mL | MIC ([5]; isolate 26, M. fortuitum group, M. porcinum): ≤ 0.015 µg/mL | MIC ([5]; isolate 27, M. fortuitum group, M. porcinum): 0.03 µg/mL (≈ 0.0512 µM) | MIC ([5]; isolate 28, M. fortuitum group, M. porcinum/M. boenickei): 0.03 µg/mL (≈ 0.0512 µM) | MIC ([5]; isolate 29, M. fortuitum group, M. porcinum/M. boenickei): 0.03 µg/mL (≈ 0.0512 µM) | MIC ([5]; isolate 30, M. fortuitum group, M. porcinum/M. boenickei): 0.03 µg/mL (≈ 0.0512 µM) | MIC ([5]; isolate 31, M. fortuitum group, M. senegalense): 0.06 µg/mL (≈ 0.102 µM) | MIC ([5]; isolate 32, M. fortuitum group, M. senegalense): 0.03 µg/mL (≈ 0.0512 µM) | MIC ([5]; isolate 33, M. fortuitum group, M. senegalense): 0.03 µg/mL (≈ 0.0512 µM) | MIC ([5]; isolate 34, M. fortuitum group, M. senegalense): 0.03 µg/mL (≈ 0.0512 µM) | MIC50 [6]: 1 µg/mL (≈ 1.71 µM) | MIC90 [6]: 2 µg/mL (≈ 3.41 µM) | MIC ([6]; isolate No. 1, BB2): 2 µg/mL (≈ 3.41 µM) | MIC ([6]; isolate No. 2, BB4): 2 µg/mL (≈ 3.41 µM) | MIC ([6]; isolate No. 3, 5922): 0.25 µg/mL (≈ 0.427 µM) | MIC ([6]; isolate No. 4, BB3): 0.06 µg/mL (≈ 0.102 µM) | MIC ([6]; isolate No. 5, BB6): 0.125 µg/mL (≈ 0.213 µM) | MIC ([6]; isolate No. 6, 5908): 2 µg/mL (≈ 3.41 µM) | MIC ([6]; isolate No. 7, BB7): 2 µg/mL (≈ 3.41 µM) | MIC ([6]; isolate No. 8, 6031): 1 µg/mL (≈ 1.71 µM) | MIC ([6]; isolate No. 9, 5785): 0.5 µg/mL (≈ 0.854 µM) | MIC ([6]; isolate No. 11, 6111): 0.5 µg/mL (≈ 0.854 µM) | MIC ([6]; isolate No. 12, 6005): 0.5 µg/mL (≈ 0.854 µM) | MIC ([6]; isolate No. 16, BB5): 1 µg/mL (≈ 1.71 µM) | MIC ([6]; isolate No. 19, 5960): 8 µg/mL (≈ 13.7 µM) | MIC ([6]; isolate No. 23, 6025): 1 µg/mL (≈ 1.71 µM) | MIC50 [7]: 0.06 µg/mL (≈ 0.102 µM) | MIC50 [8]: 0.25 µg/mL (≈ 0.427 µM) | MIC90 [8]: 0.25 µg/mL (≈ 0.427 µM) | MIC ([8]; isolate No. 1, 3349): 0.25 µg/mL (≈ 0.427 µM) | MIC ([8]; isolate No. 2, 3499): 0.015 µg/mL (≈ 0.0256 µM) | MIC ([8]; isolate No. 3, 2797): 0.06 µg/mL (≈ 0.102 µM) | MIC ([8]; isolate No. 4, 32): 0.25 µg/mL (≈ 0.427 µM) | MIC ([8]; isolate No. 5, 33): 0.125 µg/mL (≈ 0.213 µM) | MIC ([8]; isolate No. 6, 3489): 0.015 µg/mL (≈ 0.0256 µM) | MIC ([8]; isolate No. 7, 3491): 0.015 µg/mL (≈ 0.0256 µM) | MIC ([8]; isolate No. 8, 54): 0.03 µg/mL (≈ 0.0512 µM) | MIC ([8]; isolate No. 9, 38): 0.06 µg/mL (≈ 0.102 µM) | MIC ([8]; isolate No. 10, 36): 0.03 µg/mL (≈ 0.0512 µM) | MIC ([8]; isolate No. 11, 3480): 0.25 µg/mL (≈ 0.427 µM) | MIC ([8]; isolate No. 12, 3126): 0.25 µg/mL (≈ 0.427 µM) | MIC ([8]; isolate No. 13, 3579): 0.25 µg/mL (≈ 0.427 µM) | MIC ([8]; isolate No. 14, 7484): 0.5 µg/mL (≈ 0.854 µM) | MIC ([8]; isolate No. 15, 3488): 0.25 µg/mL (≈ 0.427 µM) | MIC ([8]; isolate No. 16, 3276): 0.25 µg/mL (≈ 0.427 µM) | MIC ([8]; isolate No. 17, 3442): 1 µg/mL (≈ 1.71 µM) | MIC ([8]; isolate No. 18, 3316): 0.25 µg/mL (≈ 0.427 µM) | MIC ([8]; isolate No. 19, 3490): 0.25 µg/mL (≈ 0.427 µM) | MIC ([8]; isolate No. 20, 2491): 0.5 µg/mL (≈ 0.854 µM) | MIC ([9]; isolate 49, M. smegmatis group, M. goodii): ≤ 0.015 µg/mL | MIC ([9]; isolate 50, M. smegmatis group, M. wolinskyi): 0.03 µg/mL (≈ 0.0512 µM) | MIC ([10]; isolate 35, M. immunogenum group): 0.5 µg/mL (≈ 0.854 µM) | MIC ([10]; isolate 36, M. immunogenum group): 0.12 µg/mL (≈ 0.205 µM) | MIC ([10]; isolate 37, M. immunogenum group): 0.5 µg/mL (≈ 0.854 µM) | MIC ([10]; isolate 38, M. immunogenum group): 0.5 µg/mL (≈ 0.854 µM)
